Assay results taken from ChEMBL document CHEMBL5241075, “Advancement of chimeric hybrid drugs to cure malaria infection: An overview with special emphasis on endoperoxide pharmacophores” (Eur J Med Chem, 2021).
≈ marks a conversion by molar mass, not a printed value. Each block holds one compound with its values, some of them ahead of it. Calls of active or inactive are those of the source. The calls are words filed in the database; no cut-off is given here.

How the values were obtained:
[1] = system: Plasmodium falciparum; assay: Antiplasmodial activity against Plasmodium falciparum W2; format: functional, organism-based
[2] = system: Plasmodium falciparum; assay: Antiplasmodial activity against Plasmodium falciparum D6; format: functional, organism-based
[3] = system: Plasmodium falciparum; assay: Selectivity ratio of IC50 for antiplasmodial activity against Plasmodium falciparum W2 to IC50 for antiplasmodial activity against Plasmodium falciparum D6; format: functional
[4] = system: Plasmodium falciparum; assay: Antiplasmodial activity against Plasmodium falciparum 3D7; format: functional, organism-based
[5] = system: Plasmodium falciparum; assay: Antiplasmodial activity against Plasmodium falciparum D10; format: functional, organism-based; conditions: Plasmodium falciparum, D10
[6] = system: Hemozoin; assay: Inhibition of Beta-hematin in Plasmodium falciparum
[7] = system: Plasmodium yoelii nigeriensis; assay: Antiplasmodial activity against Plasmodium yoelii nigeriensis infected in po dosed mouse assessed as reduction in parasitemia; format: functional
[8] = system: Plasmodium yoelii nigeriensis; assay: Antiplasmodial activity against Plasmodium yoelii nigeriensis infected in sc dosed mouse assessed as reduction in parasitemia; format: functional
[9] = system: Plasmodium falciparum; assay: Antimalarial activity against chloroquine resistant Plasmodium falciparum FcM29 Cameron; format: functional, organism-based
[10] = system: Plasmodium falciparum; assay: Antimalarial activity against chloroquine sensitive Plasmodium falciparum D6; format: functional, organism-based
[11] = system: Plasmodium falciparum; assay: Antiplasmodial activity against Plasmodium falciparum TM91C235; format: functional, organism-based
[12] = system: Plasmodium falciparum; assay: Antiplasmodial activity against Plasmodium falciparum; format: functional, organism-based
[13] = system: Plasmodium falciparum; assay: Antimalarial activity against chloroquine resistant Plasmodium falciparum FcB1; format: functional, organism-based
[14] = system: Plasmodium falciparum; assay: Antiplasmodial activity against Plasmodium falciparum FcM29; format: functional, organism-based
[15] = system: Plasmodium yoelii; assay: Antimalarial activity against Plasmodium yoelii infected in swiss mouse assessed as reduction in parasitemia at 96 mg/kg, po relative to control; format: functional; parameters: scale not given: the % may be the effect or the level left
[16] = system: Plasmodium berghei; assay: Antiplasmodial activity against Plasmodium berghei N infected in po dosed mouse assessed as reduction in parasitemia; format: functional
[17] = system: Plasmodium berghei; assay: Antiplasmodial activity against Plasmodium berghei N infected in sc dosed mouse assessed as reduction in parasitemia; format: functional
[18] = system: Plasmodium falciparum; assay: Antiplasmodial activity against Plasmodium falciparum NF54; format: functional, organism-based
[19] = system: Plasmodium berghei; assay: Antimalarial activity against Plasmodium berghei KBG 173 infected in ICR mouse assessed as animal survival at 320 mg/kg/day, po qd administered 3 to 5 days post infection; format: functional, organism-based; conditions: time 3-5 day
[20] = system: Plasmodium berghei; assay: Antimalarial activity against Plasmodium berghei KBG 173 infected in ICR mouse assessed as animal survival at 80 mg/kg/day, po qd administered 3 to 5 days post infection; format: functional, organism-based; conditions: time 3-5 day
[21] = system: Plasmodium berghei; assay: Antimalarial activity against Plasmodium berghei KBG 173 infected in ICR mouse assessed as animal survival at 20 mg/kg/day, po qd administered 3 to 5 days post infection; format: functional, organism-based; conditions: time 3-5 day
[22] = system: Plasmodium berghei; assay: Antimalarial activity against Plasmodium berghei KBG 173 infected in ICR mouse assessed as survival time at 320 mg/kg/day, po qd administered 3 to 5 days post infection; format: functional; conditions: time 3-5 day
[23] = system: Plasmodium berghei; assay: Antimalarial activity against Plasmodium berghei KBG 173 infected in ICR mouse assessed as survival time at 80 mg/kg/day, po qd administered 3 to 5 days post infection; format: functional; conditions: time 3-5 day
[24] = system: Plasmodium berghei; assay: Antimalarial activity against Plasmodium berghei KBG 173 infected in ICR mouse assessed as survival time at 20 mg/kg/day, po qd administered 3 to 5 days post infection; format: functional; conditions: time 3-5 day
[25] = system: Plasmodium berghei; assay: Antimalarial activity against Plasmodium berghei infected in mouse assessed as reduction in parasitemia; format: functional
[26] = system: Plasmodium yoelii; assay: Antimalarial activity against Plasmodium yoelii infected in mouse assessed as reduction in parasitemia; format: functional
[27] = Lipophilicity, logP of compound; format: physicochemical; conditions: octanol/water
[28] = system: Plasmodium berghei; assay: Antimalarial activity against liver stage Plasmodium berghei; format: functional, organism-based
[29] = system: Caco-2; assay: Cytotoxicity against human Caco-2 cells assessed as reduction in cell viability; format: functional
[30] = system: Plasmodium falciparum; assay: Antiplasmodial activity against Plasmodium falciparum K1; format: functional, organism-based; conditions: Plasmodium falciparum, K1
[31] = system: Plasmodium falciparum; assay: Antiplasmodial activity against Plasmodium falciparum gametocytes assessed as inhibition of gametocyte activation by [3H]hypoxanthine incorporation assay; format: functional, organism-based
[32] = system: Plasmodium falciparum; assay: Antiplasmodial activity against Plasmodium falciparum gametocytes by [3H]hypoxanthine incorporation assay; format: functional, organism-based
[33] = system: Plasmodium chabaudi; assay: Antiplasmodial activity against Plasmodium chabaudi infected in mouse assessed as survival rate relative to control; format: functional
[34] = read-out: ED50 (the source's name)

- IC50 [1]: 1.69 µM
- IC50 [2]: 0.98 µM
Compound: Cc1cccc(C)c1Nc1nc(OCc2cn(CCNc3ccnc4cc(Cl)ccc34)nn2)nc(N(C)C)n1
- Ratio IC50 [3]: >5.6

Compound: C[C@@H]1CC[C@H]2[C@@H](C)C(=O)O[C@@H]3O[C@@]4(C)CC[C@@H]1[C@]32OO4 [ARTEMISININ]
- IC50 [1]: 0.0067 µM
- IC90 [1]: 0.0115 µM
- IC50 [2]: 0.009 µM
- IC90 [2]: 0.0128 µM
- IC50 [4]: 0.00532 µM
- IC50 [5]: 0.023 µM
- IC50 [6]: 0.66 equiv
- CD50 [7]: 75 mg/kg/day
- CD90 [7]: >100 mg/kg/day
- ED50 ([7]; Plasmodium yoelii): 16 mg/kg/day
- ED90 ([7]; Plasmodium yoelii): 27 mg/kg/day
- CD50 [8]: 3 mg/kg/day
- CD90 [8]: 5 mg/kg/day
- ED50 ([8]; Plasmodium yoelii): 3 mg/kg/day
- ED90 ([8]; Plasmodium yoelii): 5 mg/kg/day
- IC50 [9]: 0.007 µM
- IC50 [10]: 0.008 µM
- IC50 [11]: 0.013 µM
- IC90 [11]: 0.0174 µM

Compound: CC(C)C1=C[C@H]2OC3(CCC(NCCNc4ccnc5cc(Cl)ccc45)CC3)OO[C@@]2(C)CC1 (stereo not given in full)
- IC50 [12]: 0.009 µM
- IC50 [13]: 0.006 µM
- IC50 [14]: 0.021 µM

Compound: C=C(c1ccccc1)C1COC2(CCC(NCCNc3ccnc4cc(Cl)ccc34)CC2)OO1 (stereo not given)
- Activity [15]: 89%

- IC50 [1]: 0.73 µM
- IC50 [2]: 0.58 µM
Compound: Cc1cccc(C)c1Nc1nc(OCc2cn(CCCNc3ccnc4cc(Cl)ccc34)nn2)nc(N(C)C)n1
- Ratio IC50 [3]: >11.1

Compound: C=C(c1ccccc1)C1COC2(CCC(NCCCNc3ccnc4cc(Cl)ccc34)CC2)OO1 (stereo not given)
- Activity [15]: 89%

Compound: Cc1ccc(C2O[C@@H]3O[C@]4(C)CC[C@H]5[C@H](C)CC[C@@H]([C@H]2C)[C@@]35OO4)o1 (stereo not given in full)
- ED50 [16]: 15.5 mg/kg
- ED50 [17]: 0.9 mg/kg
- IC50 [18]: 0.0052 µM

Compound: O=C(NCCNc1ccnc2cc(Cl)ccc12)C1CCC2(CC1)OOC1(CCCCC1)OO2
- IC90 [11]: 0.00378 µM
- Activity [19]: Active
- Activity [20]: Active
- Activity [21]: inactive
- Time [22]: >31 days
- Time [23]: 26.2 days
- Time [24]: 14.2 days

Compound: C[C@@H]1CC[C@H]2[C@@H](C)C(N3CCS(=O)(=O)CC3)O[C@@H]3O[C@]4(C)CC[C@@H]1[C@]32OO4 (stereo not given in full)
- ED50 [25]: 1.5 mg/kg
- ED50 [26]: 3.9 mg/kg
- EC50 [12]: 0.00014 µM
- EC90 [12]: 0.00255 µM
- logP [27]: 2.49

Compound: COc1cc(NC(C)CCCNC(=O)C2CCC3(CC2)OOC2(OO3)C3CC4CC(C3)CC2C4)c2nccc(F)c2c1 (stereo not given)
- EC50 [1]: 0.057 µM
- EC50 [28]: 2.38 µM
- CC50 [29]: > 50000 µM

Compound: C[C@@H]1CC[C@H]2[C@@H](C)C(CCN3CCN(c4ccc(C(F)(F)F)cc4)CC3)O[C@@H]3O[C@]4(C)CC[C@@H]1[C@]32OO4 (stereo not given in full)
- ED50 ([25]; Plasmodium berghei): 6 mg/kg
- IC50 [30]: 0.00619 µM

Compound: C=C(c1ccccc1)C1COC2(CCC(NCCCCNc3ccnc4cc(Cl)ccc34)CC2)OO1 (stereo not given)
- Activity [15]: 89%

Compound: O[C@@H](c1cc(C(F)(F)F)nc2c(C(F)(F)F)cccc12)[C@H]1CCCCN1 [(S,R)-MEFLOQUINE]
- IC90 [1]: 0.64 µM
- IC50 [31]: 5600 µM
- IC50 [32]: 16500 µM
- IC50 [11]: 0.13 µM
- IC90 [11]: 0.264 µM

Compound: C[C@@H]1CC[C@H]2[C@@H](C)C(CCc3ccc(C(=O)O)cc3)O[C@@H]3O[C@]4(C)CC[C@@H]1[C@]32OO4 (stereo not given in full)
- EC50 [4, 34]: 1.1 ng/mL (≈ 2.64 nM)
- EC50 [30, 34]: 0.6 ng/mL (≈ 1.44 nM)
- Survival [33]: 100%

Compound: COc1cc(NC(C)CCCNC(=O)C2CCC3(CC2)OOC2(OO3)C3CC4CC(C3)CC2C4)c2nccc(C(F)(F)F)c2c1 (stereo not given)
- EC50 [1]: 0.06 µM
- EC50 [28]: 4.12 µM
- CC50 [29]: > 50000 µM

Compound: C[C@@H]1CC[C@H]2[C@@H](C)C(c3cccn3C)O[C@@H]3O[C@]4(C)CC[C@@H]1[C@]32OO4 (stereo not given in full)
- ED50 [17]: 0.7 mg/kg
- IC50 [18]: 0.0046 µM

Compound: Clc1ccc2c(NCCNCC3CCC4(CC3)OOC3(CCCCC3)OO4)ccnc2c1
- Activity [19]: Active
- Activity [20]: Active
- Activity [21]: inactive
- Time [22]: >31 days
- Time [23]: 26.4 days
- Time [24]: 15.8 days
